Measured values: PMC9436958, “The synthesis of novel thioderivative chalcones and their influence on NF-κB, STAT3 and NRF2 signaling pathways in colorectal cancer cells” (Scientific Reports, 2022)

Key:
Type in all cases: cell-based
Bcl-xl = Bcl-xl expression (qRT-PCR mRNA, Western blot protein); conditions: HCT116 cells, 5 at 5 μM; for Bcl-xl transcription: 4 at 1 μM
Protocol: (§1) Cytosolic and nuclear extracts were prepared using a Nuclear/Cytosol Fractionation Kit (BioVision Research, USA). Cytosolic extracts (for NF-κBp65, NF-κBp50, COX-2, iNOS, STAT3, c-Myc, Bcl-xl, Nrf2, SOD, GSTP, EGFR, Akt, p-Akt, Keap1, IKKα/β and β-actin) or nuclear extracts (for NF-κBp65, NF-κBp50, STAT3, p-STAT3, Nrf2, p-Nrf2 and lamin) were separated on 7.5%, 10% or 12% SDS–PAGE slab gels. Then, the proteins were transferred to a nitrocellulose Immobilon-P membrane. After blocking for 2 h with 10% skimmed milk, proteins were incubated with primary antibodies against NF-κBp65, NF-κBp50, COX-2, iNOS, STAT3, p-STAT3, c-Myc, Bcl-xl, Nrf2, p-Nrf2, SOD, GSTP, EGFR, Akt, p-Akt, Keap1, IKKα/β, β-actin, and lamin. Alkaline phosphatase (AP)-labeled anti-rabbit IgG, anti-goat IgG, and anti-mouse IgG secondary antibodies (Bio-Rad Laboratories, USA), as well as horseradish peroxidase (HRP)-conjugated anti-mouse IgG (Boster Bio, USA) secondary antibodies were used in the staining reaction. Bands were visualized by the AP Conjugate Substrate Kit NBT/BCIP or the chemiluminescent HRP substrate of the Clarity ECL Kit (Bio–Rad Laboratories, USA). The amount of immunoreactive product in each lane was determined using a ChemiDoc Imaging System (Bio–Rad Laboratories, USA). Values were calculated as relative absorbance units (RQ) per mg of protein and expressed as a percentage of the control.
(§2) Total RNA from cells was isolated with the GeneMatrix Universal DNA/RNA/Protein Purification Kit (EurX, Poland). For the qRT-PCR analyses, the Maxima SYBR Green I/ROX qPCR Master Mix (2×) (Thermo Fisher Scientific, USA) and the thermal cycler LightCycler (Roche, Germany) were used. The protocol started with 5 min of enzyme activation at 95 °C, followed by 40–50 cycles at 95 °C for 15 s, 56 °C for 20 s, 72 °C for 40 s, and final elongation at 72 °C for 5 min. Melting curve analysis was used for amplicon verification. The expression levels of TATA-box-binding protein (TBP) and porphobilinogen deaminase (PBGD) were used to normalize the data. The Pfaffl comparative method was used to calculate fold change. Primers were designed using Beacon Designer software (the sequences of primers used to analyze genes are listed in Table 2 of the supplementary materials).

DLD-1 cells [1] = experiment: Apoptosis, Annexin V / 7-AAD flow cytometry, DLD-1; conditions: 48 h; for induction of apoptosis: mainly early and total apoptotic populations enriched
Protocol: (§3) Apoptosis was assessed by the detection of phosphatidylserine externalization based on Annexin V staining combined with fluorescent DNA intercalator 7-Aminoactinomycin D (7-AAD) what allowed for the discrimination between early and late apoptotic cells. The analysis was performed by flow cytometry using the Muse Annexin V & Dead Cell Kit (Luminex, USA) and the Muse Cell Analyzer (Merck, Germany), according to the manufacturer’s protocol. Cells were seeded (2 × 10^5 cells per well) in six-well plates and on the following day the analyzed compounds were added. Topotecan (Sigma-Aldrich, USA) was used as a positive control of apoptosis induction. After 48 h cells were collected by trypsinization, stained and after 20 min incubation at room temperature in the dark analyzed by flow cytometry. Three independent experiments were performed. Data were analyzed by Muse 1.5 Analysis Software (Merck, Germany).

STAT3 [2] = experiment: qRT-PCR, STAT3 mRNA; conditions: DLD-1 cells; 2, 5 at 5 μM, 4 at 1 μM
Protocol: as §2

EGFR = experiment: Western blot, EGFR protein in cytosolic fraction; conditions: 4 at 1 μM
Protocol: as §1

HCT116 cells [3] = experiment: MTT viability assay, HCT116 cells; conditions: Homo sapiens, HCT-116, range 0.5–100 µM, read-out: IC50, cytotoxicity
Protocol: (§4) The DLD-1 and HCT116 colorectal carcinoma cell lines were purchased from ECACC. The HaCaT cell line of spontaneously immortalized keratinocytes was purchased from Cell Lines Service (Germany). The cells were cultured in Dulbecco’s Modified Eagle’s Medium (DMEM, Sigma-Aldrich, USA) with the addition of 10% FBS (EURx, Poland) and 1% antibiotic solution (penicillin and streptomycin) (Sigma-Aldrich, USA) at 37 °C in an atmosphere with 95% humidity and 5% CO2.
(§5) The effect of the tested compounds on the viability of DLD-1, HCT116 and HaCaT cells was assessed by the MTT assay according to the standard protocol.

Nrf2 = experiment: Transcription factor ELISA, Nrf2 binding to DNA
Protocol: (§6) To estimate NF-ΚB (p50 and p65 subunits) STAT3 and Nrf2 activation, enzymatic immunoassays with the Transcription Factor ELISA Kit (TransAM™NF-κB, TransAM™STAT3/TransAM™Nrf2, Active Motif, Carlsbad CA, USA) were used following the manufacturer’s protocol. Briefly, proper consensus-site double-strand oligonucleotides (NF-κB—5′-GGGACTTTCC-3′; STAT3-5’—TTCCCGGAA-3’; Nrf2-5ʹ—[…]-3ʹ) were immobilized on an ELISA plate and incubated for one hour with the nuclear extracts. The activated subunits bound to DNA were recognized with a specific primary antibody and detected with an HRP-conjugated secondary antibody. The number of subunits was determined by spectrophotometry at λ = 450 nm. The number of p50, and p65 subunits, STAT3, as well as the amount of Nrf2 contained in the DNA-binding complex, corresponded to the activated NF-κB, STAT3, or Nrf2 transcription factors.

STAT3 [4] = experiment: Transcription factor ELISA, STAT3 binding to DNA; conditions: 2, 5 at 5 μM, 4 at 1 μM; for binding of STAT3 to DNA: HCT116 cells; for decrease in the binding of STAT3 to DNA: nuclear fraction of DLD-1 cells
Protocol: as §6

HCT116 cells [5] = experiment: Apoptosis, Annexin V / 7-AAD flow cytometry, HCT116; conditions: 48 h; for induction of apoptosis: increase of early, late and total apoptosis
Protocol: as §3

p-Akt = experiment: Western blot, p-Akt (Ser 473) protein in cytosolic fraction; conditions: 2, 5 at 5 μM, 4 at 1 μM
Protocol: as §1

[6] = MTT viability assay, normal HaCaT cells; conditions: HaCaT cells (spontaneously immortalized keratinocytes), normal human HaCaT cells, read-out: IC50, cytotoxicity
Protocol: as §4, §5

DLD-1 cells [7] = experiment: MTT viability assay, DLD-1 cells; conditions: Homo sapiens, range 0.5–100 µM, read-out: IC50, cytotoxicity
Protocol: as §4, §5

COX-2 = COX-2 expression (qRT-PCR mRNA, Western blot protein); conditions: 4 at 1 μM
Protocol: as §1, §2

[8] = HCT116 cells, 4 at 1 μM, 2, 5, 6, 7 at 5 μM
[9] = doubled concentration: 4 at 2 μM, 5 at 10 μM

| Nrf2 binding to a specific nucleotide sequence (ELISA) (Nrf2; [8]) | binding of STAT3 to DNA (STAT3 [4]) | Compound | Bcl-xl transcription (Bcl-xl) | induction of apoptosis (DLD-1 cells [1]) | STAT3 gene expression (mRNA) (STAT3 [2]) | level of EGFR (EGFR; DLD-1 cells, 2, 5 at 5 μM) | IC50 (HCT116 cells [3]) | decrease in the binding of STAT3 to DNA (STAT3 [4]) | late and total apoptosis compared with BAY 11-7082 (5 µM) (HCT116 cells [5]; [9]) | induction of apoptosis (HCT116 cells [5]) | phosphorylation of p-Akt (Ser 473) (p-Akt; DLD-1 cells) | phosphorylation of p-Akt (Ser 473) (p-Akt; HCT116 cells) | IC50 [6] | IC50 (DLD-1 cells [7]) | other results |
| --- | --- | --- | --- | --- | --- | --- | --- | --- | --- | --- | --- | --- | --- | --- | --- |
| statistically significant increase | decreased the binding of STAT3 to DNA | COc1cc(/C=C/C(=O)c2cc(Br)c(SC)c(OC)c2)ccc1SC [chalcone 5] | decreased Bcl-xl transcription | able to induce apoptosis | decreased | significantly decreased the level of EGFR | 13 µM | 20% | higher percentage of late and total apoptosis than BAY 11-7082 | able to induce apoptosis | significantly reduced phosphorylation of p-Akt | significantly reduced phosphorylation of p-Akt | 14 µM | 11 µM | Bcl-xl protein level (Bcl-xl): correlated with Bcl-xl protein level; total apoptotic cells compared with BAY 11-7082 (5 µM) (DLD-1 cells [1]; 5 in higher concentration): comparable effect; Nrf2 binding to a specific nucleotide sequence (ELISA) (Nrf2; DLD-1 cells, 1 at 1 μM, 3, 5, 7, 8 at 5 μM): statistically significant increase; late and total apoptosis compared with BAY 11-7082 (5 µM) (HCT116 cells [5]; standard concentration: 5 at 5 μM): higher percentage of late and total apoptosis than BAY 11-7082 |
| statistically significant increase | decreased the binding of STAT3 to DNA | COc1cc(C(=O)/C=C/c2cccc(SC)c2)cc(Br)c1OC [chalcone 4] | decreased Bcl-xl transcription | able to induce apoptosis | decreased | significantly decreased the level of EGFR | 20 µM | 30% | higher percentage of late and total apoptosis than BAY 11-7082 | able to induce apoptosis | significantly reduced phosphorylation of p-Akt | significantly reduced phosphorylation of p-Akt | 3 µM | 2 µM | COX-2 protein level (COX-2; DLD-1 cells, cytosolic fraction): reduced COX-2 protein levels; COX-2 transcription (COX-2; DLD-1 cells, 3, 6 at 5 μM): statistically significant reduction; COX-2 expression, protein level (COX-2; HCT116 cells, 2 at 5 μM): reduction of COX-2 expression; COX-2 expression, transcript level (COX-2; HCT116 cells, 2 at 5 μM): reduction of COX-2 expression; level of EGFR (EGFR; HCT116 cells): significantly decreased the level of EGFR |
